{
  "source": "patent US20250222123A1",
  "about": "“COMPOUND COMPRISING FC-BINDING UNIT, AND CONJUGATE PREPARED USING SAME” (ABTIS CO., LTD., priority 2022, published 2025)",
  "key": {"[1]": {"biological_target": "T1, CLDN18.2 virus-like particle (VLP) (Homo sapiens, UniProt P56856)", "T1 construct": "purchased CUSABIO TECHNOLOGY LLC CSB-MP005498HU (A5)", "assay": "Indirect ELISA on CLDN18.2 virus-like particle (VLP)", "format": "binding", "conditions": "CLDN18.2 (antigen protein), VLP-coated plate", "description": "To confirm the binding strength to an antigen, a CLDN18.2 virus-like particle (VLP) in which the claudin 18.2 protein (CLDN18.2) was expressed was prepared. At this time, CLDN18.2˜VLP is CSB-MP005498HU (A5) from CUSABIO TECHNOLOGY LLC.\nAfter a 96-well plate was coated with the CLDN18.2 VLP for ELISA and treated with antibody-A and ADC-A, respectively, indirect ELISA was performed to measure OD values. At this time, the measured values are illustrated in FIG. 37.\nThe measured results were used for regression analysis in GraphPad PRISM® 9.0 software to calculate EC50 and Bmax. The antigen binding strengths of antibody-A, ADC-A, antibody-B, and ADC-B were evaluated based on the calculated values."}, "MIA PaCa-2 (CLDN18.2-)": {"test_system": "MIA PaCa-2 (CLDN18.2-)", "assay": "Cell-based ELISA, CLDN18.2-negative cancer cells", "format": "binding", "conditions": "parental MIA PaCa-2, CLDN 18.2-negative cell line", "description": "(§1) Four types of cell lines (MIA PaCa-2˜CLDN18.2, PATU8988S, parental MIA PaCa-2 (CLDN18.2-), and SNU601) were prepared. At this time, MIA PaCa-2˜CLDN18.2 and PATU8988S are CLDN18.2-positive pancreatic cancer cell lines. MIA PaCa-2 (CLDN18.2-) is a CLDN18.2-negative pancreatic cancer cell line. SNU601 is a CLDN18.2-positive gastric cancer cell line.\n(§2) The prepared cell lines were cultured in DMEM containing 10% FBS and 1% penicillin/streptomycin (MIA PaCa-2˜CLDN18.2, MIA PaCa-2 (CLDN18.2-)), RPMI1640 containing 10% FBS and 1% penicillin/streptomycin (SNU601), and DMEM comprising 5% FBS, 5% horse serum, 1% penicillin/streptomycin, and […] L-glutamine (PATU8988S) in an incubator under the conditions of 37° C. and 5% CO2.\n(§3) The prepared cell lines were plated on 96-well culture plates, treated with antibody-A, ADC-A, antibody-B, and ADC-B, respectively, and then cell-based ELISA was performed, and OD values were measured. At this time, the measured values are illustrated in FIGS. 38 to 41.\n(§4) The measured results were used for regression analysis in GraphPad PRISM® 9.0 software to calculate EC50 and Bmax. The cell binding strengths of antibody-A, ADC-A, antibody-B, and ADC-B to each cell line were evaluated based on the calculated values."}, "MIA PaCa-2˜CLDN18.2": {"test_system": "MIA PaCa-2˜CLDN18.2", "assay": "Cell-based ELISA, binding to antigen-expressing cancer cells", "description": "as §1, §2, §3, §4"}, "SNU601": {"test_system": "SNU601", "assay": "Cell-based ELISA, binding to antigen-expressing cancer cells", "conditions": "SNU601 (CLDN18.2+)", "description": "as §1, §2, §3, §4"}},
  "note": "Like-named read-outs stand apart in the source and are kept apart here.",
  "data": [
    {"substance": "Zolbetuximab [Antibody-B]", "values": [
      {"measurement": "Bmax", "setting": "[1]", "result": 2.134},
      {"measurement": "binding to cell line (in words)", "setting": "MIA PaCa-2 (CLDN18.2-)", "result": "did not bind"},
      {"measurement": "Bmax", "setting": "MIA PaCa-2˜CLDN18.2", "result": 3.053},
      {"measurement": "Kd", "setting": "MIA PaCa-2˜CLDN18.2; pancreatic cancer cell line", "result": 0.045, "unit": "µg/mL"},
      {"measurement": "Kd", "setting": "MIA PaCa-2˜CLDN18.2; read-out: Kd", "result": 0.3, "unit": "nM"},
      {"measurement": "Bmax", "setting": "SNU601", "result": 1.701},
      {"measurement": "Kd", "setting": "SNU601; gastric cancer cell line", "result": 0.032, "unit": "µg/mL"},
      {"measurement": "Kd", "setting": "SNU601; read-out: Kd", "result": 0.213, "unit": "nM"}
    ]}
  ]
}
